Consider five compounds from the supplement of paper PMC10307832.

The first assay deals with NCI-H2126. Description: relative viability (nuclei count vs DMSO), 5 days (fraction); higher = more cells survive. The settings on record: first compound 0.2 µM. The method, boiled down: (§1)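 Lung cancer cell lines were seeded in 1536-well plates and dosed by pin tool the next day, with either a single drug or a fixed anchor-drug dose combined with five library-drug doses (not always all listed) spaced in √10 steps. Five days later, one step fixed the cells and stained their nuclei (final 0.05% Triton X-100, 1% formaldehyde, 1 ug/ml Hoechst), and nuclei were counted on 4× images. Relative viability is the nuclei count in treated wells divided by the count in vehicle wells, and each value is the median of duplicate plates.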
Take `COCC1(CO)C(=O)C2CCN1CC2` (stereo unspecified) [PRIMA-1MET] + Nc1ncn([C@H]2C[C@H](O)[C@@H](CO)O2)c(=O)n1 [Decitabine] (partner 2 µM): the relative viability was determined as 0.59.
`COCC1(CO)C(=O)C2CCN1CC2` (stereo unspecified) [PRIMA-1MET] + O=C(c1cc(Cc2n[nH]c(=O)c3ccccc23)ccc1F)N1CCN(C(=O)C2CC2)CC1 [Olaparib] (partner 8 µM) came in with a relative viability of 0.908.
Same read-out and setting: in the case of `COCC1(CO)C(=O)C2CCN1CC2` (stereo unspecified) [PRIMA-1MET] + C[C@@H](Oc1cc(-c2cnn(C3CCNCC3)c2)cnc1N)c1c(Cl)ccc(F)c1Cl [Crizotinib] (partner 1 µM) it was 1.08.

Staying with this assay, now noted: first compound 0.6325 µM.
For the compound `COCC1(CO)C(=O)C2CCN1CC2` (stereo unspecified) [PRIMA-1MET] + CC(C)C[C@H](NC(=O)[C@H](Cc1ccccc1)NC(=O)c1cnccn1)B(O)O [Bortezomib] (partner 0.002 µM), the relative viability is 1.13.
In turn, `COCC1(CO)C(=O)C2CCN1CC2` (stereo unspecified) [PRIMA-1MET] + CC(=O)Nc1cccc(-n2c(=O)n(C3CC3)c(=O)c3c(Nc4ccc(I)cc4F)n(C)c(=O)c(C)c32)c1 [Trametinib] (partner 0.02 µM) showed a relative viability of 0.47.
`COCC1(CO)C(=O)C2CCN1CC2` (stereo unspecified) [PRIMA-1MET] + Nc1ncn([C@H]2C[C@H](O)[C@@H](CO)O2)c(=O)n1 [Decitabine] (partner 2 µM) had a relative viability of 0.579.
Compound `COCC1(CO)C(=O)C2CCN1CC2` (stereo unspecified) [PRIMA-1MET] + O=C(c1cc(Cc2n[nH]c(=O)c3ccccc23)ccc1F)N1CCN(C(=O)C2CC2)CC1 [Olaparib] (partner 8 µM) had a relative viability of 0.861.
The compound `COCC1(CO)C(=O)C2CCN1CC2` (stereo unspecified) [PRIMA-1MET] + C[C@@H](Oc1cc(-c2cnn(C3CCNCC3)c2)cnc1N)c1c(Cl)ccc(F)c1Cl [Crizotinib] (partner 1 µM) gave a relative viability of 1.02.

Still in this assay, the particulars now being: first compound 2 µM.
Regarding `COCC1(CO)C(=O)C2CCN1CC2` (stereo unspecified) [PRIMA-1MET] + CC(C)C[C@H](NC(=O)[C@H](Cc1ccccc1)NC(=O)c1cnccn1)B(O)O [Bortezomib] (partner 0.002 µM), the relative viability came out at 1.06.
Still for that read-out and setting: in the case of `COCC1(CO)C(=O)C2CCN1CC2` (stereo unspecified) [PRIMA-1MET] + CC(=O)Nc1cccc(-n2c(=O)n(C3CC3)c(=O)c3c(Nc4ccc(I)cc4F)n(C)c(=O)c(C)c32)c1 [Trametinib] (partner 0.02 µM) it was 0.597; in that of `COCC1(CO)C(=O)C2CCN1CC2` (stereo unspecified) [PRIMA-1MET] + Nc1ncn([C@H]2C[C@H](O)[C@@H](CO)O2)c(=O)n1 [Decitabine] (partner 2 µM), 0.544.
`COCC1(CO)C(=O)C2CCN1CC2` (stereo unspecified) [PRIMA-1MET] + O=C(c1cc(Cc2n[nH]c(=O)c3ccccc23)ccc1F)N1CCN(C(=O)C2CC2)CC1 [Olaparib] (partner 8 µM) yielded a relative viability of 0.854.
Take `COCC1(CO)C(=O)C2CCN1CC2` (stereo unspecified) [PRIMA-1MET] + C[C@@H](Oc1cc(-c2cnn(C3CCNCC3)c2)cnc1N)c1c(Cl)ccc(F)c1Cl [Crizotinib] (partner 1 µM): the relative viability is 0.957.

Staying with this assay, now noted: first compound 6.325 µM.
Compound `COCC1(CO)C(=O)C2CCN1CC2` (stereo unspecified) [PRIMA-1MET] + CC(C)C[C@H](NC(=O)[C@H](Cc1ccccc1)NC(=O)c1cnccn1)B(O)O [Bortezomib] (partner 0.002 µM) gave a relative viability of 1.16.
The compound `COCC1(CO)C(=O)C2CCN1CC2` (stereo unspecified) [PRIMA-1MET] + CC(=O)Nc1cccc(-n2c(=O)n(C3CC3)c(=O)c3c(Nc4ccc(I)cc4F)n(C)c(=O)c(C)c32)c1 [Trametinib] (partner 0.02 µM) showed a relative viability of 0.577.
Turning to `COCC1(CO)C(=O)C2CCN1CC2` (stereo unspecified) [PRIMA-1MET] + Nc1ncn([C@H]2C[C@H](O)[C@@H](CO)O2)c(=O)n1 [Decitabine] (partner 2 µM), the relative viability was 0.631.
On the same count and under the same terms, in the case of `COCC1(CO)C(=O)C2CCN1CC2` (stereo unspecified) [PRIMA-1MET] + O=C(c1cc(Cc2n[nH]c(=O)c3ccccc23)ccc1F)N1CCN(C(=O)C2CC2)CC1 [Olaparib] (partner 8 µM) it was 0.972; in that of `COCC1(CO)C(=O)C2CCN1CC2` (stereo unspecified) [PRIMA-1MET] + C[C@@H](Oc1cc(-c2cnn(C3CCNCC3)c2)cnc1N)c1c(Cl)ccc(F)c1Cl [Crizotinib] (partner 1 µM), 1.04.

The same assay, now with this note: first compound 20 µM.
Compound `COCC1(CO)C(=O)C2CCN1CC2` (stereo unspecified) [PRIMA-1MET] + CC(C)C[C@H](NC(=O)[C@H](Cc1ccccc1)NC(=O)c1cnccn1)B(O)O [Bortezomib] (partner 0.002 µM) had a relative viability of 1.1.
In turn, `COCC1(CO)C(=O)C2CCN1CC2` (stereo unspecified) [PRIMA-1MET] + CC(=O)Nc1cccc(-n2c(=O)n(C3CC3)c(=O)c3c(Nc4ccc(I)cc4F)n(C)c(=O)c(C)c32)c1 [Trametinib] (partner 0.02 µM) registered a relative viability of 0.543.
In turn, `COCC1(CO)C(=O)C2CCN1CC2` (stereo unspecified) [PRIMA-1MET] + Nc1ncn([C@H]2C[C@H](O)[C@@H](CO)O2)c(=O)n1 [Decitabine] (partner 2 µM) showed a relative viability of 0.619.
`COCC1(CO)C(=O)C2CCN1CC2` (stereo unspecified) [PRIMA-1MET] + O=C(c1cc(Cc2n[nH]c(=O)c3ccccc23)ccc1F)N1CCN(C(=O)C2CC2)CC1 [Olaparib] (partner 8 µM) displayed a relative viability of 0.831.
As to `COCC1(CO)C(=O)C2CCN1CC2` (stereo unspecified) [PRIMA-1MET] + C[C@@H](Oc1cc(-c2cnn(C3CCNCC3)c2)cnc1N)c1c(Cl)ccc(F)c1Cl [Crizotinib] (partner 1 µM), the relative viability was 1.04.

Another assay has as its system LCLC-97TM1. The description is as above. Particulars: first compound 0.2 µM. The method, boiled down:
as §1
`COCC1(CO)C(=O)C2CCN1CC2` (stereo unspecified) [PRIMA-1MET] + CC(C)C[C@H](NC(=O)[C@H](Cc1ccccc1)NC(=O)c1cnccn1)B(O)O [Bortezomib] (partner 0.002 µM) registered a relative viability of 0.526.
`COCC1(CO)C(=O)C2CCN1CC2` (stereo unspecified) [PRIMA-1MET] + CC(=O)Nc1cccc(-n2c(=O)n(C3CC3)c(=O)c3c(Nc4ccc(I)cc4F)n(C)c(=O)c(C)c32)c1 [Trametinib] (partner 0.02 µM): the relative viability was determined as 0.133.
Still for that read-out and setting: in the case of `COCC1(CO)C(=O)C2CCN1CC2` (stereo unspecified) [PRIMA-1MET] + Nc1ncn([C@H]2C[C@H](O)[C@@H](CO)O2)c(=O)n1 [Decitabine] (partner 2 µM) it was 0.286; in that of `COCC1(CO)C(=O)C2CCN1CC2` (stereo unspecified) [PRIMA-1MET] + O=C(c1cc(Cc2n[nH]c(=O)c3ccccc23)ccc1F)N1CCN(C(=O)C2CC2)CC1 [Olaparib] (partner 8 µM), 0.45.
Take `COCC1(CO)C(=O)C2CCN1CC2` (stereo unspecified) [PRIMA-1MET] + C[C@@H](Oc1cc(-c2cnn(C3CCNCC3)c2)cnc1N)c1c(Cl)ccc(F)c1Cl [Crizotinib] (partner 1 µM): the relative viability came out at 0.494.

Still in this assay, the particulars now being: first compound 0.6325 µM.
`COCC1(CO)C(=O)C2CCN1CC2` (stereo unspecified) [PRIMA-1MET] + CC(C)C[C@H](NC(=O)[C@H](Cc1ccccc1)NC(=O)c1cnccn1)B(O)O [Bortezomib] (partner 0.002 µM) had a relative viability of 0.428.
`COCC1(CO)C(=O)C2CCN1CC2` (stereo unspecified) [PRIMA-1MET] + CC(=O)Nc1cccc(-n2c(=O)n(C3CC3)c(=O)c3c(Nc4ccc(I)cc4F)n(C)c(=O)c(C)c32)c1 [Trametinib] (partner 0.02 µM) displayed a relative viability of 0.163.
Turning to `COCC1(CO)C(=O)C2CCN1CC2` (stereo unspecified) [PRIMA-1MET] + Nc1ncn([C@H]2C[C@H](O)[C@@H](CO)O2)c(=O)n1 [Decitabine] (partner 2 µM), the relative viability worked out at 0.163.
